Source: article PMC8989888, “Development of optimized drug-like small molecule inhibitors of the SARS-CoV-2 3CL protease for treatment of COVID-19” (Nature Communications, 2022)
Where two headings read alike, the source gives them in different places.

Target: SARS-CoV-2 3CL protease (Severe acute respiratory syndrome coronavirus 2, UniProt P0DTD1)
Assay type: biochemical
Set-up: Avg: unit not given here
Conditions: for Inhibition at 10 µM: 10 µM compound; for Inhibition at 100 µM: 100 µM compound; for IC50 / LogIC50: Figure S1 and S2
[1] = Conc 10 µM, average response of dose-response curve
[2] = Conc 15 µM, average response of dose-response curve
[3] = Conc 20 µM, average response of dose-response curve
[4] = Conc 50 µM, average response of dose-response curve
[5] = Conc 100 µM, average response of dose-response curve
[6] = Conc 200 µM, average response of dose-response curve
[7] = dose-response retest of fragment hits
[8] = log of IC50 (µM), dose-response curve fit
[9] = Conc 10 µM, mean response (inhibition) of dose-response curve
[10] = Conc 15 µM, mean response (inhibition) of dose-response curve
[11] = Conc 20 µM, mean response (inhibition) of dose-response curve
[12] = Conc 50 µM, mean response (inhibition) of dose-response curve
[13] = Conc 100 µM, mean response (inhibition) of dose-response curve
[14] = Conc 200 µM, mean response (inhibition) of dose-response curve
[15] = dose-response curve of fragment hit

O=C(CCl)N1CCN(c2ccccc2[N+](=O)[O-])CC1 [Z1562119284]
Inhibition at 10 µM: 20%
Inhibition at 100 µM: 90%
Avg [1]: 20
Avg [2]: 20
Avg [3]: 26
Avg [4]: 56.4
Avg [5]: 90
Avg [6]: 97.6
IC50 [7]: 44.6 µM
LogIC50 (log of IC50 in µM): 1.6496

O=C(NCc1ccc(F)c(CO)c1)c1cccnc1S [Z1501229042]
Inhibition at 10 µM: 27%
Inhibition at 100 µM: 100%
Avg (Conc 10 µM): 26.5
Avg (Conc 15 µM): 32.3
Avg (Conc 20 µM): 50.8
Avg (Conc 50 µM): 101.4
Avg (Conc 100 µM): 101.9
Avg (Conc 200 µM): 89.2
IC50 (dose-response curve fit): 19.9 µM
LogIC50 [8]: 1.299

O=C(CCl)c1ccc(F)c(C(=O)CCl)c1 [Z2768504793]
Inhibition at 10 µM: 3%
Inhibition at 100 µM: 63%
Avg [9]: 3.4
Avg [10]: 11.1
Avg [11]: 34.1
Avg [12]: 48.5
Avg [13]: 62.9
Avg [14]: 79.1
IC50 [15]: 50.2 µM
LogIC50 (log10 of IC50 in µM): 1.7

Nc1nccnc1S [Z1868316802]
Inhibition at 10 µM: 21%
Inhibition at 100 µM: 92%
Avg [1]: 20.5
Avg [2]: 24.1
Avg [3]: 32.6
Avg [4]: 92.3
Avg [5]: 91.8
Avg [6]: 82.9
IC50 [7]: 23.3 µM
LogIC50 (log of IC50 in µM): 1.368

O=C(CCl)N1CCc2[nH]c3ccccc3c2C1 [Z398556976]
Inhibition at 10 µM: 43%
Inhibition at 100 µM: 100%
Avg [9]: 42.8
Avg [10]: 70.8
Avg [11]: 74.6
Avg [12]: 93.9
Avg [13]: 100.2
Avg [14]: 98.1
IC50 [15]: 11 µM
LogIC50 (log10 of IC50 in µM): 1.042

Cc1cc(C(=O)CCl)c(C)n1-c1nccs1 [Z56979277]
Inhibition at 10 µM: 64%
Inhibition at 100 µM: 100%
Avg [9]: 63.6
Avg [10]: 80.9
Avg [11]: 90.9
Avg [12]: 95.6
Avg [13]: 101.9
Avg [14]: 108.5

CC1C(=O)Nc2ccc(C(=O)CCl)cc21 (stereo not shown) [Z94598687]
Inhibition at 10 µM: 3%
Inhibition at 100 µM: 85%
Avg [9]: 3
Avg [10]: 12.3
Avg [11]: 39.4
Avg [12]: 61.2
Avg [13]: 84.9
Avg [14]: 105.3
IC50 [15]: 33.9 µM
LogIC50 (log10 of IC50 in µM): 1.53

O=C(CCl)N1CCN(Cc2cccs2)CC1 [Z166605372]
Inhibition at 10 µM: 3%
Inhibition at 100 µM: 70%
Avg [1]: 3.4
Avg [2]: 11.2
Avg [3]: 27.4
Avg [4]: 53.6
Avg [5]: 69.5
Avg [6]: 93
IC50 [7]: 47.5 µM
LogIC50 (log of IC50 in µM): 1.677

Cc1ccccc1CN1CCN(C(=O)CCl)CC1 [Z208155076]
Inhibition at 10 µM: 18%
Inhibition at 100 µM: 85%
Avg [1]: 18.2
Avg [2]: 5.8
Avg [3]: 36.6
Avg [4]: 64.8
Avg [5]: 84.6
Avg [6]: 98.1
IC50 [7]: 35.8 µM
LogIC50 (log of IC50 in µM): 1.554

COC1(CNC(=O)c2cccnc2S)CCOCC1 [Z1483040147]
Inhibition at 10 µM: 0%
Inhibition at 100 µM: 90%
Avg (Conc 10 µM): -6.5
Avg (Conc 15 µM): -1.8
Avg (Conc 20 µM): 13.4
Avg (Conc 50 µM): 61.8
Avg (Conc 100 µM): 90
Avg (Conc 200 µM): 90.2
IC50 (dose-response curve fit): 39.7 µM
LogIC50 [8]: 1.599

NS(=O)(=O)c1ccc(S)nc1 [Z235344787]
Inhibition at 10 µM: 6%
Inhibition at 100 µM: 100%
Avg [1]: 5.7
Avg [2]: 20.7
Avg [3]: 38.6
Avg [4]: 106.4
Avg [5]: 110.1
Avg [6]: 111.3
IC50 [7]: 22.3 µM
LogIC50 (log of IC50 in µM): 1.348

CCC(=O)N1CCC(NC(=O)c2cccnc2S)C1 (stereo not shown) [Z1429050837]
Inhibition at 10 µM: 24%
Inhibition at 100 µM: 100%
Avg (Conc 10 µM): 24.1
Avg (Conc 15 µM): 26.1
Avg (Conc 20 µM): 20.9
Avg (Conc 50 µM): 87.9
Avg (Conc 100 µM): 102.1
Avg (Conc 200 µM): 100.5
IC50 (dose-response curve fit): 42.3 µM
LogIC50 [8]: 1.626

CN1C(=O)CCc2cc(C(=O)CCl)ccc21 [Z2491497303]
Inhibition at 10 µM: 6%
Inhibition at 100 µM: 87%
Avg [1]: 5.9
Avg [2]: 25.5
Avg [3]: 13.7
Avg [4]: 51.4
Avg [5]: 86.8
Avg [6]: 97.7
IC50 [7]: 48.8 µM
LogIC50 (log of IC50 in µM): 1.688

OCCc1cnc(S)nc1 [Z2064274637]
Inhibition at 10 µM: 5%
Inhibition at 100 µM: 100%
Avg [1]: 5.2
Avg [2]: 28.9
Avg [3]: 36.1
Avg [4]: 91.7
Avg [5]: 103
Avg [6]: 105.7
IC50 [7]: 23.4 µM
LogIC50 (log of IC50 in µM): 1.369

CC(C)Cc1ncc(CNC(=O)c2cccnc2S)s1 [Z1494348106]
Inhibition at 10 µM: 4%
Inhibition at 100 µM: 100%
Avg (Conc 10 µM): 3.5
Avg (Conc 15 µM): 37.1
Avg (Conc 20 µM): 49.8
Avg (Conc 50 µM): 100.8
Avg (Conc 100 µM): 102.9
Avg (Conc 200 µM): 93.1
IC50 (dose-response curve fit): 18.8 µM
LogIC50 [8]: 1.275

CN(C)C(=O)c1csc(C(=O)CCl)c1 [Z3244705145]
Inhibition at 10 µM: 24%
Inhibition at 100 µM: 89%
Avg [9]: 23.6
Avg [10]: 22.7
Avg [11]: 40.5
Avg [12]: 58.7
Avg [13]: 89
Avg [14]: 99.3
IC50 [15]: 35.9 µM
LogIC50 (log10 of IC50 in µM): 1.555

O=C(NCC1CCCCC1O)c1cccnc1S (stereo not shown) [Z1252265470]
Inhibition at 10 µM: 0%
Inhibition at 100 µM: 100%
Avg (Conc 10 µM): -0.7
Avg (Conc 15 µM): 22.4
Avg (Conc 20 µM): 33.5
Avg (Conc 50 µM): 82
Avg (Conc 100 µM): 99.6
Avg (Conc 200 µM): 99.1
IC50 (dose-response curve fit): 25.5 µM
LogIC50 [8]: 1.406

O=C(CCl)N1CCOC(c2ccc(F)cc2)C1 (stereo not shown) [Z1562122812]
Inhibition at 10 µM: 31%
Inhibition at 100 µM: 100%
Avg [1]: 31.1
Avg [2]: 36.9
Avg [3]: 59.9
Avg [4]: 101.2
Avg [5]: 96.2
Avg [6]: 101.8
IC50 [7]: 18.4 µM
LogIC50 (log of IC50 in µM): 1.2639

N#Cc1ccc(S)nc1 [Z367678594]
Inhibition at 10 µM: 16%
Inhibition at 100 µM: 100%
Avg [9]: 16.1
Avg [10]: 29.5
Avg [11]: 30.5
Avg [12]: 107.9
Avg [13]: 110.6
Avg [14]: 113.2
IC50 [15]: 25 µM
LogIC50 (log10 of IC50 in µM): 1.398

O=C(CCl)c1ccc(N2CCCC2=O)cc1 [Z221603842]
Inhibition at 10 µM: 47%
Inhibition at 100 µM: 87%
Avg [1]: 46.5
Avg [2]: 48.2
Avg [3]: 62.2
Avg [4]: 77.1
Avg [5]: 86.9
Avg [6]: 83.1
IC50 [7]: 14 µM
LogIC50 (log of IC50 in µM): 1.147

NC(=O)c1csc(C(=O)CCl)c1 [Z802671642]
Inhibition at 10 µM: 16%
Inhibition at 100 µM: 80%
Avg [9]: 15.9
Avg [10]: 29.5
Avg [11]: 35.2
Avg [12]: 47.6
Avg [13]: 80.1
Avg [14]: 92.5
IC50 [15]: 42.6 µM
LogIC50 (log10 of IC50 in µM): 1.6293
